Reference: patent publication US10065990B2, “Cyclic peptide compound, and preparation method, pharmaceutical composition and use thereof” (HANGZHOU GUANYU BIO-MEDICAL CO., LTD, priority 2013, dated 2018)
Like-named read-outs stand apart in the source and are kept apart here.

Key:
HDAC1 = HDAC1 (Homo sapiens, UniProt Q13547); assay: HDAC biochemical activity measurement (fluorescent substrate deacetylation);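 also: fluorogenic acetyl-lysine substrate (20 µM) deacetylated by HDAC1, then developer releases fluorophore read at 360 nm excitation and 460 nm emission, inhibitor incubated 30 min at 37 °C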
HDAC1, sequence (Q13547 whole entry, species assumed): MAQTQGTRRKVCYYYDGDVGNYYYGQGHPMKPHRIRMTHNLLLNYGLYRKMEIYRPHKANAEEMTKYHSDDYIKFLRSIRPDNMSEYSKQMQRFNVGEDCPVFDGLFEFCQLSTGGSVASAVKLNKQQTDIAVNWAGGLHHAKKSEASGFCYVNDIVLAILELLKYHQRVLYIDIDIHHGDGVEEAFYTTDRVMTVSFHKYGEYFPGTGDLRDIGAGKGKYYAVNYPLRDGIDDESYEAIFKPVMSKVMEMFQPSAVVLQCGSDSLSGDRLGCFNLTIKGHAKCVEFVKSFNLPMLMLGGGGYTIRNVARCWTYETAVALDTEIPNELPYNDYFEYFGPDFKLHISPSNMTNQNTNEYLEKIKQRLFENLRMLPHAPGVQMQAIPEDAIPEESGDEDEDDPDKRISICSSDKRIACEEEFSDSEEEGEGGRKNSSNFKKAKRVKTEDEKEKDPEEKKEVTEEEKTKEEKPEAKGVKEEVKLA

HDAC8 = target: T1, HDAC8 (Homo sapiens, UniProt Q9BY41); assay: as above; details: 37° C. 30 minutes
T1 sequence (Q9BY41 1-377): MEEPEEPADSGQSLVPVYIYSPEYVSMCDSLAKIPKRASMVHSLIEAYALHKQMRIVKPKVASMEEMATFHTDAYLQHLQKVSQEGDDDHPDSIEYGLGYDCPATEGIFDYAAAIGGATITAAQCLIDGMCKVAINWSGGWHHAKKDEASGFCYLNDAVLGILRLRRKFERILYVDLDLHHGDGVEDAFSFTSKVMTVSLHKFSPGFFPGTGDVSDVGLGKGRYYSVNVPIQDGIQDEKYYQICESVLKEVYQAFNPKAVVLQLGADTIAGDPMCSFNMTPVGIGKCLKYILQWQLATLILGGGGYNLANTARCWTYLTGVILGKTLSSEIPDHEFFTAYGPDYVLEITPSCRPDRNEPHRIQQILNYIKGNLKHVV

[1] = system: A549 (human lung cancer cells); assay: MTT cancer cell growth inhibition; type: cell-based; details: Homo sapiens, A549, 72 h, MTT, 72 hours incubation, read-out: GI50 A54
Procedure, shortened: (§1)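 MTT viability, 570 nm, GI50. Cells 1500/well; compound 72 h at final 10^−5–10^−10 M in triplicate.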

[2] = system: BGC-823 (human gastric cancer cells); assay: MTT cancer cell growth inhibition; type: cell-based; details: Homo sapiens, BGC-823, 72 h, MTT, 72 hours incubation, read-out: GI50 BG
Procedure, shortened: as §1

[3] = system: Bel-7402 (human hepatoma cells); assay: MTT cancer cell growth inhibition; type: cell-based; details: Homo sapiens, Bel-7402, 72 h, MTT, 72 hours incubation, Bel-7402 cells; read-out: GI50 Bel-7402
Procedure, shortened: as §1

[4] = system: DU145 (human prostate cancer cells); assay: MTT cancer cell growth inhibition; type: cell-based; details: Homo sapiens, DU-145, 72 h, MTT, 72 hours incubation, read-out: GI50 Du1
Procedure, shortened: as §1

[5] = system: Huh-7 (human hepatoma cells); assay: MTT cancer cell growth inhibition; type: cell-based; details: Homo sapiens, Huh-7, 72 h, MTT, 72 hours incubation, Huh-7 cells; read-out: GI50 Huh-7
Procedure, shortened: as §1

[6] = system: MCF-7 (human breast cancer cells); assay: MTT cancer cell growth inhibition; type: cell-based; details: Homo sapiens, MCF7, 72 h, 72 hours incubation, read-out: GI50 MCF
Procedure, shortened: as §1

[7] = system: MOLT-4 (human acute lymphoblastic leukemia cells); assay: MTT cancer cell growth inhibition; type: cell-based; details: Homo sapiens, MOLT-4, 72 h, MTT, 72 hours incubation, read-out: GI50 Mol
Procedure, shortened: as §1

[8] = system: PANC-1 (Pac-1, human pancreatic cancer cells); assay: MTT cancer cell growth inhibition; type: cell-based; details: Homo sapiens, PANC-1, 72 h, MTT, 72 hours incubation, read-out: GI50 PAN
Procedure, shortened: as §1

[9] = system: U937 (human leukemia cells); assay: MTT cancer cell growth inhibition; type: cell-based; details: Homo sapiens, U-937, 72 h, MTT, 72 hours incubation, read-out: GI50 U93
Procedure, shortened: as §1

[10] = system: lncap (prostate cancer cells); assay: MTT cancer cell growth inhibition; type: cell-based; details: Homo sapiens, LNCaP, 72 h, MTT, 72 hours incubation, read-out: GI50 lnca
Procedure, shortened: as §1

HDAC3 = HDAC3 (Homo sapiens, UniProt O15379); assay: HDAC biochemical activity measurement (fluorescent substrate deacetylation);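 also: fluorogenic acetyl-lysine substrate (20 µM) deacetylated by HDAC3, then developer added for 15 min at room temperature, release of fluorophore read at excitation 360 nm, emission 460 nm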
HDAC3, sequence (O15379 whole entry, species assumed): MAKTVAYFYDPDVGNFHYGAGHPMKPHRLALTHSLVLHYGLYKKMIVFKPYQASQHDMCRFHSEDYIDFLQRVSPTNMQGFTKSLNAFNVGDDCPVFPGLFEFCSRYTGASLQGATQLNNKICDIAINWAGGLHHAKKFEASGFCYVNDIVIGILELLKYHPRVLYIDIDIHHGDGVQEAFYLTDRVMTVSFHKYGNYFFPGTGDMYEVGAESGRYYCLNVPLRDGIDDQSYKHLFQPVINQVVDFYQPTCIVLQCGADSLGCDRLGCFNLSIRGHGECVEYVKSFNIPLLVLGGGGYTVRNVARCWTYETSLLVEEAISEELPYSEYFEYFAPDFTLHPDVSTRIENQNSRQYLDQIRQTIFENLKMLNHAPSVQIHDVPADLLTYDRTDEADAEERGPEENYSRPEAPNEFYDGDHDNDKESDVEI
HDAC3, sequence (Q9Y618 395-489 partner limits assumed, species assumed): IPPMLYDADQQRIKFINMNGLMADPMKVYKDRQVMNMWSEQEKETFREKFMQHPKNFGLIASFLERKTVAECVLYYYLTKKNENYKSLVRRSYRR

[11] = HDAC1, 37° C. 30 minutes, read-out: IC50 HDAC1
[12] = Table 3, column C, read-out: IC50 HDAC1, C (six-membered ring with substituents)
[13] = read-out: IC50 HDAC3, HDAC3, 37° C. 30 minutes
[14] = Table 3, read-out: IC50 HDAC1, D (non-substituent)

Compound `C/C=C1\NC(=O)c2nc(ccc2F)CNC(=O)C[C@@H](/C=C/CCSC(=O)CCCCCCC)OC(=O)[C@H](C(C)C)NC1=O` [Compound 30] has an IC50 (HDAC1; [11]) of 12 nM, an IC50 (HDAC1; [12]) of 12 nM and an IC50 (HDAC8) of 43 nM. For the same compound, the GI50 [1] was 30 nM, the GI50 [2] was 30 nM and the GI50 [3] was 82 nM. It also gave a GI50 [4] of 30 nM, a GI50 [5] of 37 nM and a GI50 [6] of 20 nM. It also gave a GI50 [7] of 30 nM, a GI50 [8] of 80 nM and a GI50 [9] of 30 nM. It also gave a GI50 [10] of 30 nM and an IC50 (HDAC3; [13]) of 34 nM.

Compound `C/C=C1\NC(=O)c2cccc(n2)CNC(=O)C[C@@H](/C=C/CCSC(C)=O)OC(=O)[C@H](CCCCN)NC1=O` [Compound 15] has an IC50 (HDAC1; [11]) of 191 nM, an IC50 (HDAC1; [14]) of 191 nM and an IC50 (HDAC8) of 43 nM. For the same compound, the GI50 [1] was 2300 nM, the GI50 [2] was 1220 nM and the GI50 [3] was 86 nM. For the same compound, the GI50 [4] was 480 nM, the GI50 [5] was 73 nM and the GI50 [6] was 19800 nM. For the same compound, the GI50 [7] was 19700 nM, the GI50 [8] was 2580 nM and the GI50 [9] was 1120 nM. The GI50 [10] was 400 nM and the IC50 (HDAC3; [13]) was 57 nM.

`C/C=C1\NC(=O)c2cc(SC)cc(n2)CNC(=O)C[C@@H](/C=C/CCSC=O)OC(=O)[C@H](C(C)C)NC1=O` [Compound 169] gave an IC50 (HDAC1; [11]) of 72 nM, an IC50 (HDAC8) of 15 nM and a GI50 ([1]; A549 cells) of 40 nM. The GI50 ([2]; BGC-823 cells) was 60 nM, the GI50 [3] was 46 nM and the GI50 ([4]; DU145 cells) was 70 nM. For the same compound, the GI50 [5] was 61 nM, the GI50 ([6]; MCF-7 cells) was 70 nM and the GI50 ([7]; MOLT-4 cells) was 40 nM. The GI50 ([8]; PANC-1 cells) was 40 nM, the GI50 ([9]; U937 cells) was 20 nM and the GI50 ([10]; lncap cells) was 50 nM. For the same compound, the IC50 (HDAC3) was 16 nM.

`C/C=C1\NC(=O)c2cccc(n2)CNC(=O)C[C@@H](/C=C/CCSC(C)=O)OC(=O)[C@H](Cc2ccc(O)cc2)NC1=O` [Compound 18] showed an IC50 (HDAC1; [11]) of 187 nM, an IC50 (HDAC1; [14]) of 187 nM and an IC50 (HDAC8) of 73 nM. The GI50 [1] was 3800 nM, the GI50 [2] was 53100 nM and the GI50 [3] was 95 nM. For the same compound, the GI50 [4] was 420 nM, the GI50 [5] was 65 nM and the GI50 [6] was 490 nM. It also gave a GI50 [7] of 59700 nM, a GI50 [8] of 42100 nM and a GI50 [9] of 11300 nM. The GI50 [10] was 10300 nM and the IC50 (HDAC3; [13]) was 67 nM.

With `C/C=C1\NC(=O)c2cccc(n2)CNC(=O)C[C@@H](/C=C/CCSC(C)=O)OC(=O)[C@H](Cc2ccccc2)NC1=O` [Compound 13] the IC50 (HDAC1; [11]) was 187 nM, the IC50 (HDAC1; [14]) was 187 nM and the IC50 (HDAC8) was 159 nM. It also gave a GI50 [1] of 50 nM, a GI50 [2] of 100 nM and a GI50 [3] of 85 nM. The GI50 [4] was 20 nM, the GI50 [5] was 85 nM and the GI50 [6] was 300 nM. The GI50 [7] was 20 nM, the GI50 [8] was 70 nM and the GI50 [9] was 80 nM. For the same compound, the GI50 [10] was 100 nM and the IC50 (HDAC3; [13]) was 337 nM.

For `C/C=C1\NC(=O)c2nc(ccc2F)CNC(=O)C[C@@H](/C=C/CCSC(C)=O)OC(=O)[C@H](CCCCN)NC1=O` [Compound 72], the IC50 (HDAC1; [11]) was 64 nM, the IC50 (HDAC1; [12]) was 64 nM and the IC50 (HDAC8) was 453 nM. It also gave a GI50 [1] of 20 nM, a GI50 [2] of 60 nM and a GI50 [3] of 61 nM. The GI50 [4] was 30 nM, the GI50 [5] was 37 nM and the GI50 [6] was 30 nM. For the same compound, the GI50 [7] was 30 nM, the GI50 [8] was 60 nM and the GI50 [9] was 30 nM. For the same compound, the GI50 [10] was 30 nM and the IC50 (HDAC3; [13]) was 135 nM.
